SMILES strings stand for the structures.

T1 sequence (P00533 25-1210 T790M/C797S/L858R): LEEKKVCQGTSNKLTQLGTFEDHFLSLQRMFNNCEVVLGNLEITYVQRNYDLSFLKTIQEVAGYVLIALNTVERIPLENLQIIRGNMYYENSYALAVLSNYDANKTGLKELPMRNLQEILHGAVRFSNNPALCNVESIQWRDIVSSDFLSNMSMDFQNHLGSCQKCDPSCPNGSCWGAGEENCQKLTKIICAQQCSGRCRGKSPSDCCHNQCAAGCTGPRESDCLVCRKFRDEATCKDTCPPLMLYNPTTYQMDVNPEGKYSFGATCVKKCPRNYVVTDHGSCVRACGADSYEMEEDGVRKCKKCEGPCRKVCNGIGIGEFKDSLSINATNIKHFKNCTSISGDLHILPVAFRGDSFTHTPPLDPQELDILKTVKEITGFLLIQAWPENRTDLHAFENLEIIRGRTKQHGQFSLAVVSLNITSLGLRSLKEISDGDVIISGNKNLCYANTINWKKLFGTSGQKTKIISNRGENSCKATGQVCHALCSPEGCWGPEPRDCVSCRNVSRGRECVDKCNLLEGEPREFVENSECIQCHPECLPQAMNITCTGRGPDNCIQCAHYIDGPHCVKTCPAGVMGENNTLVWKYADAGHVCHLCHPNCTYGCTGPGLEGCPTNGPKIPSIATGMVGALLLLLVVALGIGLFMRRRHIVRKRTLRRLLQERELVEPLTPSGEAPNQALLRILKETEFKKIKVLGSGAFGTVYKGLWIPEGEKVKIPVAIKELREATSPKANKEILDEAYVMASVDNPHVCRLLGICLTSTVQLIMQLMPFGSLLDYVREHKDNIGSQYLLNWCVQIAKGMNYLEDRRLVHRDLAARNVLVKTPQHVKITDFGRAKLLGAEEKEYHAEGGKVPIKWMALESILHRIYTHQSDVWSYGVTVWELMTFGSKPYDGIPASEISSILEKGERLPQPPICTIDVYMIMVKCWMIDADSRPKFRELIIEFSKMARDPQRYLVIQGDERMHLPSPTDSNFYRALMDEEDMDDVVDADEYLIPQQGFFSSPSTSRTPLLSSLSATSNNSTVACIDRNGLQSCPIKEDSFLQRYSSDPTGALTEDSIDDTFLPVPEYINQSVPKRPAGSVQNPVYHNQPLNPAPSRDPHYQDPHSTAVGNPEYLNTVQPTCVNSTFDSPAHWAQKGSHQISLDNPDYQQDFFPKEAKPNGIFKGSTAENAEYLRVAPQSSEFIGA

This assay addresses T1, EGFR TMLRCS (T790M/L858R/C797S) (Homo sapiens, UniProt P00533, C797S/L858R/T790M).
T1 construct: host or cells: BaF3-TMLRCS cell line
Briefly: HTRF Phospho EGFR TMLRCS assay (cellular), BaF3-TMLRCS cells. To be noted: BaF3-TMLRCS cell line, 4 hours incubation. It is filed as cell-based. The protocol: HTRF Phospho EGFR TMLRCS Assay (Cellular)
BaF3-TMLRCS cell line were obtained from Crownbio (San Diego, Calif., USA). Cells were maintained at 37° C., 5% CO2 in RPMI ATCC (Gibco 31870)+2 mM Glutamine+0.5 μg/ml Puromycin supplemented with 10% fetal bovine serum (FBS) (Gibco).
Cells are transferred as above to Greiner Bio-One, Nr. 784-08 micro-titerplate at 20000 cells/well in 12.5 μl of growth medium/well after the plates had been pre-filled with 12.5 nl of DMSO solutions of the to be tested compound (in dose response) or DMSO only. After spinning the plates at 300×g for 30 seconds the cells were incubated for 4 hours at 37 C, 5% CO2, 95% humidity. The cells were lysed by adding to the compound mix 4 µl/well of the supplemented lysis buffer (Cis-bio, Phospho-EGFR HTRF kit, 64EG1PEH), followed by incubation for 30 min at room temperature with shaking (400 rpm). The plates were then frozen and stored overnight at −80 C. On the next day and after thawing the plates, 4 μl of a mixture of anti-Phospho-EGFR Cryptate and of anti-Phospho-EGFR-d2 antibody solutions prepared in the supplied detection buffer was added to each well. The lidded plates were then incubated for 4 h at room temperature before reading the fluorescence emission at 616 and 665 nm using an Envision reader (Perkin Elmer). Data was analyzed in similar fashion as above using the normalized ratio of the 665 to 616 signals multiplied by 10000.
`O=C(Nc1nccs1)C(c1ncn2c1CCC2)N1Cc2c(Cl)cc(-c3ccc(C45CC(CN6CCC(CO)CC6)(C4)C5)cc3)cc2C1=O` (racemic) [Example 1, (2RS)-2-(6,7-Dihydro-5H-pyrrolo[1,2-c]imidazol-1-yl)-2-[4-chloro-6-[4-[3-[[4-(hydroxymethyl)-1-piperidyl]methyl]-1-bicyclo[1.1.1]pentanyl]phenyl]-1-oxo-isoindolin-2-yl]-N-thiazol-2-yl-acetamide]: the IC50 (commonly the concentration that gives 50% inhibition) was 9 nM. This counts as single-digit nanomolar.
Molecule `O=C(Nc1nccs1)C(c1ncn2c1CCC2)N1Cc2c(F)cc(-c3ccc(C45CC(CN6CCC(CO)CC6)(C4)C5)cc3)cc2C1=O` (racemic) [Example 2, (2RS)-2-(6,7-Dihydro-5H-pyrrolo[1,2-c]imidazol-1-yl)-2-[4-fluoro-6-[4-[3-[[4-(hydroxymethyl)-1-piperidyl]methyl]-1-bicyclo[1.1.1]pentanyl]phenyl]-1-oxo-isoindolin-2-yl]-N-thiazol-2-yl-acetamide] had an IC50 of 4 nM.
For `CN(C)CC12CC(c3ccc(-c4cc(F)c5c(c4)C(=O)N(C(C(=O)Nc4nccs4)c4ncn6c4CCC6)C5)cc3)(C1)C2` (racemic) [Example 3, (2RS)-2-(6,7-Dihydro-5H-pyrrolo[1,2-c]imidazol-1-yl)-2-[6-[4-[3-[(dimethylamino)methyl]-1-bicyclo[1.1.1]pentanyl]phenyl]-4-fluoro-1-oxo-isoindolin-2-yl]-N-thiazol-2-yl-acetamide] the value was 10 nM.
In turn, `O=C(Nc1nccs1)C(c1ncn2c1CCC2)N1Cc2c(F)cc(-c3ccc(C45CC(CN6CCC(O)CC6)(C4)C5)cc3)cc2C1=O` (racemic) [Example 4, (2RS)-2-(6,7-Dihydro-5H-pyrrolo[1,2-c]imidazol-1-yl)-2-[4-fluoro-6-[4-[3-[(4-hydroxy-1-piperidyl)methyl]-1-bicyclo[1.1.1]pentanyl]phenyl]-1-oxo-isoindolin-2-yl]-N-thiazol-2-yl-acetamide] displayed an IC50 of 13 nM. This IC50 and that of the molecule before are within 1.5-fold of each other.
The molecule `O=C(Nc1nccs1)C(c1ncn2c1CCC2)N1Cc2c(F)cc(-c3ccc(C45CC(CN6CCCC6)(C4)C5)cc3)cc2C1=O` (racemic) [Example 5, (2RS)-2-(6,7-Dihydro-5H-pyrrolo[1,2-c]imidazol-1-yl)-2-[4-fluoro-1-oxo-6-[4-[3-(pyrrolidin-1-ylmethyl)-1-bicyclo[1.1.1]pentanyl]phenyl]isoindolin-2-yl]-N-thiazol-2-yl-acetamide] displayed an IC50 of 13 nM.
For the molecule `O=C(Nc1nccs1)C(c1ncn2c1CCC2)N1Cc2c(F)cc(-c3ccc(C45CC(CN6CCCC(O)CC6)(C4)C5)cc3)cc2C1=O` (racemic) [Example 6, (2RS)-2-(6,7-Dihydro-5H-pyrrolo[1,2-c]imidazol-1-yl)-2-[4-fluoro-6-[4-[3-[[(4RS)-4-hydroxyazepan-1-yl]methyl]-1-bicyclo[1.1.1]pentanyl]phenyl]-1-oxo-isoindolin-2-yl]-N-thiazol-2-yl-acetamide], the midpoint of inhibition, the IC50, lay at 8 nM.
For the molecule `O=C(Nc1nccs1)C(c1ncn2c1CCC2)N1Cc2c(F)cc(-c3ccc(C45CC(CN6CCC(CO)CC6)(C4)C5)cc3)c(F)c2C1=O` (racemic) [Example 7, (2RS)-2-[4,7-Difluoro-6-[4-[3-[[4-(hydroxymethyl)-1-piperidyl]methyl]-1-bicyclo[1.1.1]pentanyl]phenyl]-1-oxo-isoindolin-2-yl]-2-(6,7-dihydro-5H-pyrrolo[1,2-c]imidazol-1-yl)-N-thiazol-2-yl-acetamide], the IC50 worked out at 4 nM.

The values are drawn from patent publication US20230057891A1, “EGFR INHIBITORS” (Hoffmann-La Roche Inc., priority 2019, published 2023).
